Measured values taken from US8609608B2, “Antimicrobial peptides” (C3 Jian, Inc., priority 2007, dated 2013).
Read-outs that look alike come from different tables or passages of the source. Where no end group is shown, it is not given here.

Columns and labels:
[1] = test system: E. faecalis
[2] = test system: P. aeruginosa; experiment: MIC against P. aeruginosa; format: cell-based, Pseudomonas aeruginosa
[3] = test system: S. aureus
[4] = test system: clinical isolates of S. mutans; format: cell-based, Streptococcus mutans
Description: S. mutans clinical isolates UA140 (32), UA159 (1), T8 (33), ATCC 25175, GS5 (Kuramitsu and Ingersoll (1977) Infect Immun., 17: 330-337), and all gram-positive strains listed below (see Table 9) were grown under anaerobic conditions in brain heart infusion or Todd-Hewitt (TH) broth (Difco) overnight at 37° C. prior to use (Eckert et al. (2006) Antimicrob. Agents Chemother. 50: 3651-3657). Veillonella atypica PK1910 was grown in Veillonella medium (Egland et al. (2004) Proc. Natl. Acad. Sci., USA, 101: 16917-16922). All strains were grown in an anaerobic atmosphere of 80% N2, 10% CO2, and 10% H2.
Antibacterial growth inhibition assays were performed using sterile 96-well plates in a final volume of 100 μl, TH or Veillonella medium as described previously (Qi et al. (2005) FEMS Microbial Lett. 251: 321-326). Briefly, bacterial cells were grown overnight to an optical density at 600 nm of 0.75 to 0.8 (corresponding to 1×10^8 CFU/ml) and then diluted to 1×10^5 CFU/ml in broth and aliquoted onto plates. An appropriate volume of peptide stock solution (5 to 20 mg/ml, in water or methanol, depending on solubility) was then added to the first column of the plate to give 500 μg/ml or 512 μg/ml, followed by serial 1:2 dilutions across the plate to give wells containing peptides ranging from 500 to 1.95 μg/ml or 512 to 2 μg/ml. Methanol alone was also added to control for the effects of the solvent. The plates were then incubated at 37° C. under anaerobic conditions for 16 to 20 h without shaking, and the MIC was determined as the concentration of peptide present in the last clear well after visual inspection. Up to 5% (vol/vol) methanol was found not to be antimicrobial (data not shown). MICs were determined in triplicate for all bacteria.

[5] = test system: L. casei

| Substance | MIC E. faecalis [1] | MIC P. aeruginosa [2] | MIC S. aureus [3] | MIC S. mutans ([4]; clinical isolates of) | MIC L. casei [5] | MIC S. aureus ([3]; Killing Peptide Library #7) | MIC P. aeruginosa ([2]; Killing Peptide Library #7) | MIC S. mutans ([4]; Killing Peptide Library #7) |
| --- | --- | --- | --- | --- | --- | --- | --- | --- |
| FKFLFKF [Peptide S3L8-42, FKFLFKF] | >125 µg/mL | >125 µg/mL | >125 µg/mL | >125 µg/mL | >62.5 µg/mL |  |  |  |
| FHVKIHFRLHVKFHF [Peptide S3L8-7, FHVKIHFRLHVKFHF] | >125 µg/mL | >125 µg/mL | >125 µg/mL |  | 16 µg/mL |  |  |  |
| LHIHAHFHVHIHLHF [Peptide S3L8-8, LHIHAHFHVHIHLHF] | >125 µg/mL | >125 µg/mL | >125 µg/mL |  | >62.5 µg/mL |  |  |  |
| VLIRILVRVIF [Peptide S3L8-33, VLIRILVRVIF] | 16 µg/mL | >125 µg/mL | 125 µg/mL | >125 µg/mL | 16 µg/mL |  |  |  |
| FRHRFRHRF [Peptide S3L8-34, FRHRFRHRF] | >125 µg/mL | >125 µg/mL | >125 µg/mL | >125 µg/mL | >62.5 µg/mL |  |  |  |
| VFKRVLIHKLIF [Peptide S3L8-23, VFKRVLIHKLIF] | 32 µg/mL | >125 µg/mL | >125 µg/mL | >125 µg/mL | 62.5 µg/mL |  |  |  |
| WIWKHKFLHRHFLF [Peptide S3L8-12, WIWKHKFLHRHFLF] | 125 µg/mL | >125 µg/mL | >125 µg/mL | 125 µg/mL | >62.5 µg/mL |  |  |  |
| LKHKLKHKF [Peptide S3L8-35, LKHKLKHKF] | >125 µg/mL | >125 µg/mL | >125 µg/mL | >125 µg/mL | >62.5 µg/mL |  |  |  |
| LKAKIKFKVKLKIKF [Peptide S3L8-11, LKAKIKFKVKLKIKF] | 39 µg/mL | 32 to 62.5 µg/mL | 125 µg/mL | 8 µg/mL | 3 µg/mL |  |  |  |
| LILKFLFKFVF [Peptide S3L8-32, LILKFLFKFVF] | 16 µg/mL | >125 µg/mL | 16 µg/mL | 31 µg/mL | 16 µg/mL |  |  |  |
| VFRHRFIHRHVF [Peptide S3L8-19, VFRHRFIHRHVF] | >125 µg/mL | >125 µg/mL | >125 µg/mL | >125 µg/mL | >62.5 µg/mL |  |  |  |
| FHIKFRVHLKVRFHF [Peptide S3L8-6, FHIKFRVHLKVRFHF] | >125 µg/mL | >125 µg/mL | >125 µg/mL |  | 8 µg/mL |  |  |  |
| WRIHLRARLHVKFRF [Peptide S3L8-4, WRIHLRARLHVKFRF] | 8 µg/mL | >125 µg/mL | 62.5 µg/mL |  | 8 µg/mL |  |  |  |
| FKFLFKFLF [Peptide S3L8-38, FKFLFKFLF] | >125 µg/mL | >125 µg/mL | >125 µg/mL | >125 µg/mL | 32 µg/mL |  |  |  |
| FKHKFKHKFIF [Peptide S3L8-30, FKHKFKHKFIF] | >125 µg/mL | >125 µg/mL | >125 µg/mL | >125 µg/mL | >62.5 µg/mL |  |  |  |
| VFIVWVHKHVLF [Peptide S3L8-2, VFIVWVHKHVLF] | >125 µg/mL | >125 µg/mL | >125 µg/mL |  | >62.5 µg/mL |  |  |  |
| VLRHLFRHRIVF [Peptide S3L8-21, VLRHLFRHRIVF] | 93.5 µg/mL | >125 µg/mL | >125 µg/mL | 60 µg/mL | >62.5 µg/mL |  |  |  |
| LRLFLRWLF [Peptide S3L8-39, LRLFLRWLF] | 32 µg/mL | >125 µg/mL | 16 µg/mL | 16 µg/mL | 16 µg/mL |  |  |  |
| FLFKHLFLHRIFF [Peptide S3L8-16, FLFKHLFLHRIFF] | >125 µg/mL | >125 µg/mL | >125 µg/mL | >125 µg/mL | >62.5 µg/mL |  |  |  |
| FLFRHRFRHRLVF [Peptide S3L8-28, FLFRHRFRHRLVF] | 62.5 µg/mL | >125 µg/mL | >125 µg/mL | 60 µg/mL | >62.5 µg/mL |  |  |  |
| FKAHIRFKLRVKFHF [Peptide S3L8-10, FKAHIRFKLRVKFHF] | >125 µg/mL | >125 µg/mL | >125 µg/mL |  | 8 µg/mL |  |  |  |
| LKQLKAGIY-NH2 [Peptide S6L1-3, LKQLKAGIY*] |  | 250 µg/mL |  | >500 µg/mL |  | >500 µg/mL |  |  |
| VFLHRHVIKHKLVF [Peptide S3L8-13, VFLHRHVIKHKLVF] | 125 µg/mL | >125 µg/mL | >125 µg/mL |  | >62.5 µg/mL |  |  |  |
| LKQKLKILF-NH2 [Peptide S6L1-2, LKQKLK1LF*] |  |  |  |  |  | >500 µg/mL | >500 µg/mL | 125 µg/mL |
| FLHKHVLRHRIVF [Peptide S3L8-14, FLHKHVLRHRIVF] | >125 µg/mL | >125 µg/mL | >125 µg/mL |  | >62.5 µg/mL |  |  |  |
